Data taken from patent publication US12558302B2, “Tyrosinase-inhibiting molecules and dermopharmaceutical composition that includes them” (MESOESTETIC PHARMA GROUP, S.L, priority 2021, dated 2026).
Several values for one entry are separate records, joined by “and”; a condition that tells them apart may be missing. Equal values may be shown once.

Assays:
[1] = test system: human melanocytes; experiment: melanin content in L-tyrosine-stimulated human melanocytes; type: cell-based; conditions: 3 days, L-tyrosine 2 mM, stimulated control = 100%
Procedure: (§1) With the aim of studying the inhibition of molecules in melanin, an in vitro assay was conducted on human melanocytes using similar conditions to those described in the tyrosinase inhibition assay. L-tyrosine is used to stimulate melanogenic activity in cells with the aim of extracting the melanin. Here, only the molecules with the best tyrosinase-inhibiting activity were tested (formulas (II) and (III)). In this experiment, the concentration of molecules used is the highest possible taking into account the melanocyte cytotoxicity value, 1.25 mM for the molecule of formula (II) and 0.33 mM for the molecule of formula (III).
Thus, human melanocytes are cultured in culture medium (#PCS-200-013, ATCC). L-tyrosine (2 mM) was added together with the molecule treatment. All the conditions were prepared in triplicate. After incubating the cells with the treatments for 3 days, they were trypsinised and lysated in 1M NaOH. Cell lysate absorbance at 340 nm was measured using a spectrophotometer. The absorbance value is directly proportional to melanin content.

[2] = target: T1, tyrosinase (Homo sapiens, UniProt P14679); experiment: tyrosinase activity in lysate of L-tyrosine-stimulated human melanocytes (L-DOPA/MBTH); type: biochemical; conditions: L-tyrosine-stimulated control = 100%
T1 construct: the cells were trypsinised and lysated in PBS pH 7.0 with 1% Triton X-100; host or cells: human melanocytes (primary), stimulated with 2 mM L-tyrosine; Triton X-100 lysate
T1 sequence (P14679 19-529): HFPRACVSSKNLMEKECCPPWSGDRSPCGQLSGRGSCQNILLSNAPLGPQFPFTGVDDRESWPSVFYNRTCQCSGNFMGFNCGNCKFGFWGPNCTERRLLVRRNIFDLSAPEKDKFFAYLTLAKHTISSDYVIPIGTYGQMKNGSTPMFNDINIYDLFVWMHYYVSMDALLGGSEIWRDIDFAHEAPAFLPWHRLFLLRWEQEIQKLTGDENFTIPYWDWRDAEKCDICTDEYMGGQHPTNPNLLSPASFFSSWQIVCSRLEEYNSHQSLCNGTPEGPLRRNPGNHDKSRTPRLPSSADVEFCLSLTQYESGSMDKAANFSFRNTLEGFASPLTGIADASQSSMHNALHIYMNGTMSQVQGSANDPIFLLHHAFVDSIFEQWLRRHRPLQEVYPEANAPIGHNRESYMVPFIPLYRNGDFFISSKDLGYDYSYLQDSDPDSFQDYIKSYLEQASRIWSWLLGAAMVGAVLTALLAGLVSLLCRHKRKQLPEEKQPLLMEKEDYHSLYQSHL
Procedure: Given the results, an in vitro assay was conducted on human melanocytes. In order to stimulate melanogenic activity in the cells they were treated with L-tyrosine. This compound, in addition to being a substrate of the tyrosinase enzyme, key to melanin synthesis, is capable of activating cell receptors that activate the melanogenesis-regulating signalling pathways (Slominski A, et al. L-tyrosine and L-dihydroxyphenylalanine as hormone-like regulators of melanocyte functions. Pigment Cell Melanoma Res. 2012; 25(1):14-27). This condition is aimed at stimulating melanogenesis in melanocytes for the purpose of extracting tyrosinase and testing the effect of the molecules of the invention.
Thus, human melanocytes were cultured in culture medium (#PCS-200-013, ATCC) and L-tyrosine (2 mM) for 3 days. After the stimulation treatment, the cells were trypsinised and lysated in PBS pH 7.0 with 1% Triton X-100. The cell lysate, which contains tyrosinase, was incubated together with the molecules of the invention at different concentrations (0.1 and 1 mM), L-DOPA and MBTH (Winder A J and Harris H. New assays for the tyrosine hydroxylase and dopa oxidase activities of tyrosinase. Eur. J. Biochem. 1991; 198(2):317-26). L-DOPA acts as a substrate for tyrosinase in the enzyme reaction and MBTH is a compound that bonds to the […] formed from the oxidation of L-DOPA, generating a colour complex. Each of the conditions used was prepared in triplicate. Lastly, absorbance at 492 nm was monitored using a spectrophotometer every 10 min for 2-5 h.

[3] = test system: melanocyte; experiment: melanocyte cytotoxicity; type: cell-based; conditions: human melanocytes
Procedure: as §1

[4] = water solubility compared to DMSO by HPLC; type: physicochemical; conditions: 50 mg/ml; for Percentage of water solubility compared to the samples dissolved in DMSO: 1 hour stirring at room temperature, filtered, HPLC
Procedure: Solutions are prepared in DMSO and in water for each of the molecules. All the samples are prepared at a final concentration of 50 mg/ml. After stirring for 1 hour at room temperature, the samples are filtered and a HPLC is performed.
In order to calculate the percentage of solubility of each of the molecules, the area of the peak of the sample dissolved in water and in DMSO obtained by HPLC is determined. The results are given as a percentage of solubility of the compound dissolved in water in the compound dissolved in DMSO.

O=C(/C=C/c1ccc(O)c(S(=O)(=O)O)c1)c1ccc(O)c(S(=O)(=O)O)c1 [II, 5-[(E)-2-(4-hydroxy-3-sulfobenzoyl)-1-ethenyl]-2-hydroxybenzenesulfonic Acid]
melanin content ([1]; 1.25 mM): 78±7% | Percentage of tyrosinase activity ([2]; 0.1 mM): 97% and 97 ± 0% | Percentage of tyrosinase activity ([2]; 1 mM): 55% and 55 ± 1% | highest possible concentration taking into account the melanocyte cytotoxicity value [3]: 1.25 mM | water solubility (in words) [4]: highly soluble | Percentage of water solubility compared to the samples dissolved in DMSO [4]: 81%

O=C(/C=C/c1ccc(O)cc1)c1ccc(O)c(S(=O)(=O)O)c1 [III, 5-[(E)-3-(p-hydroxyphenyl)acryloyl]-2-hydroxybenzenesulfonic Acid]
melanin content ([1]; 0.33 mM): 49±7% | Percentage of tyrosinase activity ([2]; 0.1 mM): 82% and 82 ± 2% | Percentage of tyrosinase activity ([2]; 1 mM): 44% and 44 ± 1% | highest possible concentration taking into account the melanocyte cytotoxicity value [3]: 0.33 mM | water solubility (in words) [4]: highly soluble | Percentage of water solubility compared to the samples dissolved in DMSO [4]: 84%

O=C(/C=C/c1ccc(O)c(S(=O)(=O)[O-])c1)c1ccc(O)c(S(=O)(=O)[O-])c1.[K+].[K+] [IV M = K, 5-[(E)-2-(4-hydroxy-3-sulfonatebenzoyl)-1-ethenyl]-2-hydroxybenzenesulfonate, Dipotassium Salt]
Percentage of tyrosinase activity ([2]; 0.1 mM): >97% | Percentage of tyrosinase activity ([2]; 1 mM): 97 ± 1% | Percentage of water solubility compared to the samples dissolved in DMSO [4]: 100%

O=C(/C=C/c1ccc(O)cc1)c1ccc(O)cc1 [Reference molecule, (E)-1,3-bis(p-hydroxyphenyl)-2-propen-1-one, reference compound]
Percentage of tyrosinase activity ([2]; 0.1 mM): 97 ± 3% | Percentage of tyrosinase activity ([2]; 1 mM): 84 ± 4% | water solubility (in words) [4]: fully water soluble | Percentage of water solubility compared to the samples dissolved in DMSO [4]: 0%

CCN(CC)CC.O=C(/C=C/c1ccc(O)cc1)c1ccc(O)c(S(=O)(=O)O)c1 [V M = (C2H5)3N, 5-[(E)-3-(p-hydroxyphenyl)acryloyl]-2-triethylammonium hydroxybenzenesulfonate]
Percentage of tyrosinase activity ([2]; 0.1 mM): >97% | Percentage of tyrosinase activity ([2]; 1 mM): 83 ± 0% | Percentage of water solubility compared to the samples dissolved in DMSO [4]: 100%

O=C(/C=C/c1ccc(O)cc1)c1ccc(O)c(S(=O)(=O)[O-])c1.[Na+] [V M = Na, 5-[(E)-3-(p-hydroxyphenyl)acryloyl]-2-sodium Hydroxybenzenesulfonate]
Percentage of tyrosinase activity ([2]; 0.1 mM): >97% | Percentage of tyrosinase activity ([2]; 1 mM): 82 ± 3% | Percentage of water solubility compared to the samples dissolved in DMSO [4]: 100%

O=C(CCc1ccc(O)c(S(=O)(=O)[O-])c1)c1ccc(O)c(S(=O)(=O)[O-])c1.[K+].[K+] [VI M = K, 2-hydroxy-5-[2-(4-hydroxy-3-sulfonatebenzoyl)ethyl]-benzenesulfonate, Dipotassium Salt]
Percentage of tyrosinase activity ([2]; 0.1 mM): >97% | Percentage of tyrosinase activity ([2]; 1 mM): 91 ± 3% | Percentage of water solubility compared to the samples dissolved in DMSO [4]: 100%
